Where no end group is shown, it is not given here.
System: lung-resident ILCs
Assay: Flow cytometry of lung ILCs after in vivo treatment (Ki-67, ILC frequency, IL-17RB, surface and intracellular markers)
Parameters: species or system mouse
Description: Mice and in vivo ILC activation. C57Bl/6J mice were purchased from the Jackson Laboratory. Nmur1-LacZ reporter mice with a LacZ cassette knocked into the Nmur1 locus were rederived from Nmur1^tm1.1(KOMP)Vleg sperm obtained from the trans-NIH Knock-Out Mouse Project (KOMP) Repository. Mice were housed under specific-pathogen-free conditions. For experiments, mice were matched for sex and age, and most mice were 6-10 weeks old. Where indicated, mice were anesthetized with Isoflurane and treated intranasally with the indicated stimuli (500 ng IL-25, 500 ng IL-33, or 20 μg Neuromedin U) daily for three consecutive days. The total administered volume was 20 μl for all conditions. Mice were randomly assigned to treatment groups after matching for sex and age. […] Mice were treated intranasally with 10 μg HDM on day 0, 7, 8, and 9, prior to sacrifice on day 10. […]
Flow cytometry. […] Cells were stained on ice with antibodies for surface molecules and the live/dead marker 7AAD and analyzed on a LSRFortessa (BD Biosciences). […]
Lung analysis. […] BALF was centrifuged, and the supernatant was used for analyzing cytokine levels and the cell pellet was resuspended, counted, and used for flow cytometry. […] Where indicated, cells were diluted in 10% Trypan Blue and viable cells counted using a hemocytometer. […]

Neuromedin U (FRVDEEFQSPFASQSRGYFLFRPRN-NH2; listed as Homo sapiens) [NMU, neuropeptide ligand of Nmur1 (US Biological)]
Galectin-3 (Lgals3) and gp49 (Lilrb4a) expression on ILCs: up-regulated

Reference: patent US12161694B2, “Methods and compositions for regulating innate lymphoid cell inflammatory responses” (The Broad Institute, Inc., priority 2017, dated 2024)
